Common to all, as to type: biochemical
The target of one assay is T1, INSR (Homo sapiens, UniProt P06213).
T1 construct: purchased CARNA BIOSCIENCE 08-142
Kind of assay: INSR inhibition assay (Caliper EZ Reader). The settings on record: enzyme assay.

The next assay has as its target T2, Wt EGFR (Homo sapiens, UniProt P00533).
T2 construct: isolated from A431 human epidermoid carcinoma cells which overexpress EGF receptor; endogenous in cells; host or cells: A431 human epidermoid carcinoma cells (receptor purified on wheat germ agglutinin sepharose)
Kind of assay: Enzyme assay, IC50 for wt EGFR (Caliper). To be noted: enzyme phosphorylation assay; read-out: EGFR_WT IC50.

Another assay has as its target EGFR_d746-750 (Homo sapiens, UniProt P00533, DEL746-750). In words: Enzyme assay, IC50 for single mutant EGFR_d746-750 (Caliper). The settings on record: enzyme phosphorylation assay.

Where “and” joins values, the source holds several entries; their conditions need not be identical. Equal entries are not always repeated.

T1 sequence (P06213 989-1382 limits assumed): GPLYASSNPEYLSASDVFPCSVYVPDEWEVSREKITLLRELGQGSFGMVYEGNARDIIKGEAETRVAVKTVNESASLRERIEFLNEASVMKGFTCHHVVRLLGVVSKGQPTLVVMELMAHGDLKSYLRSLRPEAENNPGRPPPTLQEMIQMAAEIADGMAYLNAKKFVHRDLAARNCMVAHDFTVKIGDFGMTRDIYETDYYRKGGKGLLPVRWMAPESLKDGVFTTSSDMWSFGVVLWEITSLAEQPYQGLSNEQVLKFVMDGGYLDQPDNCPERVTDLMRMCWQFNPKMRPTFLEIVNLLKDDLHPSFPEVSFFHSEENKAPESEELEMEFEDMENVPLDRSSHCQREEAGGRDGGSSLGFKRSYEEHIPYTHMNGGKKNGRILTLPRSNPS
Chain of EGFR_d746-750 (P00533 with tags, fused parts or gaps DEL746-750): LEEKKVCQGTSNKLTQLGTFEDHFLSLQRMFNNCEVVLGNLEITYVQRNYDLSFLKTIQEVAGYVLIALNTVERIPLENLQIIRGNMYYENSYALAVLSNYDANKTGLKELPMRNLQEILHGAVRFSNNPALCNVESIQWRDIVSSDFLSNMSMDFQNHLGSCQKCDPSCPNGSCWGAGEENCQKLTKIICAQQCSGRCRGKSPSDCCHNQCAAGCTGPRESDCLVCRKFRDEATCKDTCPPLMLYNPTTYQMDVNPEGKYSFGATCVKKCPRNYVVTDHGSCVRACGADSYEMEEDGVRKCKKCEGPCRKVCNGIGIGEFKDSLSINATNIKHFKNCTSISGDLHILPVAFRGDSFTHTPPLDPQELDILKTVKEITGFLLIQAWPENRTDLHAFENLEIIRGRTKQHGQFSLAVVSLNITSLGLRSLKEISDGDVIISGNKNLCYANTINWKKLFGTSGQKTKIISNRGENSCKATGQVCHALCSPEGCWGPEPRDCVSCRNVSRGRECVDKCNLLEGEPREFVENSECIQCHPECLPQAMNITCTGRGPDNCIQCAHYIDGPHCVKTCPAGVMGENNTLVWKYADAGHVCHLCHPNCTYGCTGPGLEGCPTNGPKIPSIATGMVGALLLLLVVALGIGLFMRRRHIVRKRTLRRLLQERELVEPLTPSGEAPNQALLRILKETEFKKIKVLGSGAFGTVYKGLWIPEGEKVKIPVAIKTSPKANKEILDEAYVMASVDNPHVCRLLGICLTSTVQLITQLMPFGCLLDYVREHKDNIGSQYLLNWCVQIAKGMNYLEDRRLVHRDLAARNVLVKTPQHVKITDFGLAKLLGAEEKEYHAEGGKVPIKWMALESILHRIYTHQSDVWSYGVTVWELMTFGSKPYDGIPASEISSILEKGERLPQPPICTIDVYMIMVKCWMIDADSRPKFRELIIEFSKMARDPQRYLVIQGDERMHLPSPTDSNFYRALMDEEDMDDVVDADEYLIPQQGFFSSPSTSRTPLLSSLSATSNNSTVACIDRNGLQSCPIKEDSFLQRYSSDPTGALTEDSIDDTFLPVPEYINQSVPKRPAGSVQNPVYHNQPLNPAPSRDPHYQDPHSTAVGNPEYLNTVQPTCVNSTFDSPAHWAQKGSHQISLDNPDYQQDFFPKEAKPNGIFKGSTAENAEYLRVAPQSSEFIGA
T2 sequence (P00533 25-1210): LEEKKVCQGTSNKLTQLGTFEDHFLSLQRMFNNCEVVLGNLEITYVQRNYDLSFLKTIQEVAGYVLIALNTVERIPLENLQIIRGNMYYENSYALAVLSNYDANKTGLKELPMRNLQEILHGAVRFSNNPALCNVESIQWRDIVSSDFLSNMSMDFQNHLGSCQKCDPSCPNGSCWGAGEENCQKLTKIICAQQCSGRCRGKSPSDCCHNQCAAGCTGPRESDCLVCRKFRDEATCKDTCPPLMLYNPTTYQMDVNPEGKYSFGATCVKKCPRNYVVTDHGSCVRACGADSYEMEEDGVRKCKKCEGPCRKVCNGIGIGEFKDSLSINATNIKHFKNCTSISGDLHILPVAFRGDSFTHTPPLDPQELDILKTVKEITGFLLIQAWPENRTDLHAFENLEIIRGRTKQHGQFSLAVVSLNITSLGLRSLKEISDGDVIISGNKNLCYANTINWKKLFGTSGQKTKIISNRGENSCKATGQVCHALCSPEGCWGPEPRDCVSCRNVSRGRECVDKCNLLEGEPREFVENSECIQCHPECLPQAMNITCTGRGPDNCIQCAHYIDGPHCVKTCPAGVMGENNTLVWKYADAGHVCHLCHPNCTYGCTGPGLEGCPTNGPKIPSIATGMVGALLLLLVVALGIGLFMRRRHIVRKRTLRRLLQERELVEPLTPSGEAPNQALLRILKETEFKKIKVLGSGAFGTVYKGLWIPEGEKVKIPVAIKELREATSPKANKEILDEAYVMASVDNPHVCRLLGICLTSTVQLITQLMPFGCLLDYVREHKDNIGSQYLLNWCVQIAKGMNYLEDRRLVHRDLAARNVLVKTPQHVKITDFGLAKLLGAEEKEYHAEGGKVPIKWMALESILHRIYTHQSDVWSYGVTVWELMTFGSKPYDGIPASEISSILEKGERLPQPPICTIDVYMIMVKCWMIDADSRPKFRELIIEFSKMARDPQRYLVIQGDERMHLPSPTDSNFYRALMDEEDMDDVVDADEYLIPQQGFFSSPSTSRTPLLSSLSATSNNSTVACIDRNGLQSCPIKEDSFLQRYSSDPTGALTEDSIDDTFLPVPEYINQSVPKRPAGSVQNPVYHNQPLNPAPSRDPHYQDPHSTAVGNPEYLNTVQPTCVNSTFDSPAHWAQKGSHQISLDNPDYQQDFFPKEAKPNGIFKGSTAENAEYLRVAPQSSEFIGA

On to `C=CC(=O)Nc1cc(Nc2nccc(-c3c[nH]c4ccccc34)n2)c(OC)cc1N(C)CCN(C)C` [AZD-5104], for which the IC50 (usually the midpoint of a concentration-inhibition curve) against INSR was 49.5 nM and 72.2 nM; on Wt EGFR, 1.6 nM; on EGFR_d746-750 it was 1.1 nM.
